In the supplement of paper PMC4862054:

Columns and labels:
MDA-MB-453 = conditions: 72 h
Summary of the method: (§1)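 After 72 h on 384-well plates pre-loaded with compound in 5 µl medium, breast cancer cell lines seeded in 20 µl were assayed for viability with 2.5 µl CellTiter-Blue at 37 °C for 2 h, read at 560/590 nm. Each plate was quality-checked by Z'-factor and normalised to vehicle and a positive kill control. EC50 comes from the fitted percent-inhibition dose-response curve, censored at the top concentration, and rows scoring zero for drug sensitivity were left out.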

CAL-148 = conditions: 72 h
Summary of the method: as §1

| EC50, CellTiter-Blue viability (MDA-MB-453) [nM] | SMILES | EC50, CellTiter-Blue viability (CAL-148) [nM] |
| --- | --- | --- |
| 874 | COc1cc2nccc(Oc3ccc(NC(=O)C4(C(=O)Nc5ccc(F)cc5)CC4)cc3)c2cc1OC [Cabozantinib] | 558 |
| 4070 | C[C@@H](Oc1cc(-c2cnn(C3CCNCC3)c2)cnc1N)c1c(Cl)ccc(F)c1Cl [Crizotinib] | 3570 |
| 8340 | C#Cc1cccc(Nc2ncnc3cc(OCCOC)c(OCCOC)cc23)c1 [Erlotinib] | 3630 |
| 282 | Cc1ccc(C(=O)Nc2ccc(CN3CCN(C)CC3)c(C(F)(F)F)c2)cc1C#Cc1cnc2cccnn12 [Ponatinib] | 295 |
| 6180 | CNCc1ccc(-c2[nH]c3cc(F)cc4c3c2CCNC4=O)cc1 [Rucaparib] | 7670 |
| 182 | CN[C@@H]1C[C@H]2O[C@@](C)([C@@H]1OC)n1c3ccccc3c3c4c(c5c6ccccc6n2c5c31)C(=O)N[C@H]4O [UCN-01] | 2350 |
| 9.96 | CCC1=C[C@@H]2CN(C1)Cc1c([nH]c3ccccc13)[C@@](C(=O)OC)(c1cc3c(cc1OC)N(C)[C@H]1[C@@](O)(C(=O)OC)[C@H](OC(C)=O)[C@]4(CC)C=CCN5CC[C@]31[C@@H]54)C2 [Vinorelbine] | 49.1 |
